# Measurements: US20060135432A1, “Agonists and antagonists of conadotropin-releasing hormone-2, and use thereof” (priority 2002, published 2006)
# pIC50: −log10 of the molar value. Where a SMILES comes first, the peptide text is derived from it. [ ]: non-standard residue; d: D form. dPhe(4-Cl) = N[C@H](Cc1ccc(Cl)cc1)C(=O)O; d2Nal = N[C@H](Cc1ccc2ccccc2c1)C(=O)O; dCit = NC(=O)NCCC[C@@H](N)C(=O)O; d3Pal = N[C@H](Cc1cccnc1)C(=O)O
# What was measured:
# Type in all cases: cell-based
# bullfrog GnRH receptors = test: Antagonist effect on IP production in GH3 cells expressing bullfrog GnRH receptors (bfGnRHR-2 and bfGnRHR-3 together); conditions: GH3 cells expressing bfGnRHR-2 and bfGnRHR-3, no GnRH-2
# Source text: In summary, it is concluded that Trptorelix is a very specific antagonist for GnRH-2. GH3 cell lines were obtained from the Cell Line Bank at the Cancer Research Center, Seoul National University College of Medicine, located in Seoul, Republic of Korea. The GH3 cell lines were infected with retroviruses comprising genes encoding […]-2, and bfGnRHR-3 which are bullfrog GnRH receptors, and rat GnRHR, and cell lines expressing each of these receptors were obtained. The GH3 cells expressing […]-3, and rat GnRHR were cultured on 12-well plates. After 24 hours, the cells were cultured again for 24 hours in a media containing no inositol, to which H^3-myoinositol was added. The resultant cells were washed with buffer A (140 mM NaCl, 20 mM HEPES, 4 mM KCl, 8 mM D-Glucose, 1 mM MgCl2, 1 mM CaCl2, 1 mg/ml BSA) and then cultured in buffer A containing 10 mM LiCl at 37°C. for 30 minutes. Thereafter, they were treated with GnRH having a suitable concentration, cultured at 37° C. for another 30 minutes, and then the media was eliminated. The cells were treated with 10 mM of ice-cold formic acid to terminate the reaction, and the cell extracts were mixed with Dowex anionic exchange resins. These resins were washed with distilled water, IP was extracted with 1 M ammonium formate/0.1 M formic acid, and cpm (count per minute) was determined.
# rat GnRHR = biological target: T1, rat GnRHR (Rattus norvegicus, UniProt P30969); test: Inhibition of GnRH-1-induced IP production in GH3 cells expressing rat GnRHR
# T1 construct: expressed in transfected cells; host or cells: GH3 cells, retroviral infection
# T1 sequence (P30969 1-327): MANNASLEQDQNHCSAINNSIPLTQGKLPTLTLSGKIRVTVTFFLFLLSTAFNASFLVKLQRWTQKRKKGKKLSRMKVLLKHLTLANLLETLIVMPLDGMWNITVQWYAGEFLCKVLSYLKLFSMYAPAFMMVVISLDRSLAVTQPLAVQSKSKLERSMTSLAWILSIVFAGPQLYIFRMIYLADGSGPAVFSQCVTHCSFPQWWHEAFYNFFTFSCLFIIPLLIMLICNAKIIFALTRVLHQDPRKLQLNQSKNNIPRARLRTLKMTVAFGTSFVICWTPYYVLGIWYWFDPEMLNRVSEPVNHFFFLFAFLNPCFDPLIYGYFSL
# Experimental: GH3 cell lines were obtained from the Cell Line Bank at the Cancer Research Center, Seoul National University College of Medicine, located in Seoul, Republic of Korea. The GH3 cell lines were infected with retroviruses comprising genes encoding bfGnRHR-1, bfGnRHR-2, and bfGnRHR-3 which are bullfrog GnRH receptors, and rat GnRHR, and cell lines expressing each of these receptors were obtained. The GH3 cells expressing bfGnRHR-1, bfGnRHR-2, bfGnRHR-3, and rat GnRHR were cultured on 12-well plates. After 24 hours, the cells were cultured again for 24 hours in a media containing no inositol, to which H^3-myoinositol was added. The resultant cells were washed with buffer A (140 mM NaCl, 20 mM HEPES, 4 mM KCl, 8 mM D-Glucose, 1 mM MgCl2, 1 mM CaCl2, 1 mg/ml BSA) and then cultured in buffer A containing 10 mM LiCl at 37°C. for 30 minutes. Thereafter, they were treated with GnRH having a suitable concentration, cultured at 37° C. for another 30 minutes, and then the media was eliminated. The cells were treated with 10 mM of ice-cold formic acid to terminate the reaction, and the cell extracts were mixed with Dowex anionic exchange resins. These resins were washed with distilled water, IP was extracted with 1 M ammonium formate/0.1 M formic acid, and cpm (count per minute) was determined.
# However, Trptorelix-1 could reduce the production of IP induced by 1 nM GnRH-2, in a concentration-dependent manner (FIG. 6a to FIG. 6c).
# Primate GnRH-2 receptor = test: Inhibition of GnRH-2-induced c-fos-luc luciferase activity in cells expressing Primate GnRH-2 receptor; conditions: treated at the same time as GnRH-2
# Experimental: Complimentary DNA (cDNA) for a Primate GnRH-2 receptor was obtained from a CV-1 cell genome. […] Plasmids having Primate GnRH-2 receptors where transfected into CV-1 cells. To assay the activity of the receptor, c-fos-luc where a luciferase gene is fused with a c-fos promoter was co-transfected as a probe gene. After 48 hours from transfection, the cells were treated with GnRH-2 agonists and then the activity of luciferase was assayed (Seong et al., Endocrinology vol 144 2003, 454-466).
# In the same manner as in 2-3 above, Primate GnRH-2 receptors were co-transfected along with c-fos-luc reporter genes, and after 48 hours, GnRH-2 and GnRH-2 antagonists were treated thereinto at the same time and then the effect of GnRH-2 antagonists was observed.
smiles,measurement,setting,value
"CC(=O)N[C@H](Cc1ccc2ccccc2c1)C(=O)N[C@H](Cc1ccc(Cl)cc1)C(=O)N[C@H](Cc1cccnc1)C(=O)N[C@@H](CO)C(=O)N[C@@H](Cc1ccc(O)cc1)C(=O)N[C@H](CCCNC(N)=O)C(=O)N[C@@H](Cc1c[nH]c2ccccc12)C(=O)N[C@@H](Cc1ccc(O)cc1)C(=O)N1CCC[C@H]1C(=O)N[C@H](C)C(N)=O [Trptorelix-1, Ac-D2Nal-(4Cl)D-Phe-D-3Pal-Ser-Tyr-D-Cit-Trp-Tyr-Pro-DAlaNH2] (Ac-[d2Nal][dPhe(4-Cl)][d3Pal]SY[dCit]WYP[dA]-NH2)",IP production by the antagonist alone,bullfrog GnRH receptors,production of IP was not observed
same,pIC50,rat GnRHR,9.27
same,fold lower effect than Cetrorelix,rat GnRHR; rat GnRH receptors,~60 fold
same,effect on luciferase activity induced by GnRH-2,Primate GnRH-2 receptor,reduced in a concentration-dependent manner
